According to patent publication US20090143279A1 (priority 2007, published 2009):
Where two headings read alike, the source gives them in different places.

Experiments:
[1] = tested on: mitochondrial membrane potential; type: cell-based, mouse
reactive oxygen species = type: cell-based, mouse
OXPHOS gene expression = type: cell-based, mouse
nuOXPHOS transcripts = type: cell-based, mouse
mtOXPHOS transcripts = type: cell-based, mouse
cytochrome c = type: cell-based, mouse
[2] = tested on: cellular dehydrogenase activity
[3] = composite Z-score vs DMSO, Conc 20 μM
[4] = Table 5, C2C12 myotubes, 48 h, composite Z-score
[5] = 20 μM, composite Z-score vs DMSO
[6] = composite Z-score vs DMSO wells, Conc 20 μM
[7] = composite Z-score vs DMSO, Conc 8.66 μM
[8] = composite Z-score vs DMSO, Conc 11.16 μM

Compound | ΔΨm [1, 3] | ROS (reactive oxygen species; [3]) | GE-HTS (OXPHOS gene expression; [3]) | nucOX (nuOXPHOS transcripts; [3]) | mitoOX (mtOXPHOS transcripts; [3]) | cyt c (cytochrome c; [3]) | Viability (C2C12 myotubes; [3]) | MTT [2, 3] | ΔΨm [1, 6] | ROS (reactive oxygen species; [6]) | GE-HTS (OXPHOS gene expression; [6]) | nucOX (nuOXPHOS transcripts; [6]) | mitoOX (mtOXPHOS transcripts; [6]) | cyt c (cytochrome c; [6]) | Viability (C2C12 myotubes; [6]) | MTT [2, 6] | cyt c (cytochrome c) | also measured
COc1cc([C@@H]2c3cc4c(cc3[C@H](O)[C@H]3COC(=O)[C@@H]23)OCO4)cc(OC)c1OC [picropodophyllotoxin, reference compound] | −0.349 | −1.202 | 1.512 | 1.581 | 1.129 | −1.445 | −0.107 | −2.402 | – | – | – | – | – | – | – | – | – | ROS Zscore (reactive oxygen species; [4]): −1.202; GEHTS_Zscore (OXPHOS gene expression; [4]): 2.259
CC(C)(O)[C@@H]1[C@H]2OC(=O)[C@@H]1[C@]1(O)C[C@H]3O[C@]34C(=O)O[C@H]2[C@]14C [picrotin] | – | – | – | – | – | – | – | – | – | – | – | – | – | – | – | – | – | ΔΨm [1, 5]: −0.167; ROS (reactive oxygen species; [5]): 0.917; GE-HTS (OXPHOS gene expression; [5]): 0.253; nucOX (nuOXPHOS transcripts; [5]): 0.404; mitoOX (mtOXPHOS transcripts; [5]): −0.167; cyt c (cytochrome c; [5]): 0.184; Viability (C2C12 myotubes; [5]): −0.278; MTT [2, 5]: −1.155
C=C(C)[C@@H]1[C@H]2OC(=O)[C@@H]1[C@]1(O)C[C@H]3O[C@]34C(=O)O[C@H]2[C@]14C [picrotoxinin] | – | – | – | – | – | – | – | – | −1.064 | 1.094 | −0.512 | −0.408 | −0.551 | 0.172 | −1.116 | −1.611 | – | –
O=c1[nH]c2ccccc2n1C1CCN(CCCC(c2ccc(F)cc2)c2ccc(F)cc2)CC1 [pimozide] | −0.381 | 1.432 | 0.722 | 0.857 | 0.386 | −0.121 | 0.146 | −0.447 | – | – | – | – | – | – | – | – | – | ΔΨm [1, 7]: −0.170; ROS (reactive oxygen species; [7]): 2.196; GE-HTS (OXPHOS gene expression; [7]): −0.548; nucOX (nuOXPHOS transcripts; [7]): −0.438; mitoOX (mtOXPHOS transcripts; [7]): −0.648; cyt c (cytochrome c; [7]): −0.531; Viability (C2C12 myotubes; [7]): 0.494; MTT [2, 7]: −0.375
CC(N/C(=N\C#N)Nc1ccncc1)C(C)(C)C (centres unmarked) [pinacidil] | −0.949 | 0.655 | −0.515 | −0.301 | −0.814 | 1.030 | −0.062 | −0.142 | – | – | – | – | – | – | – | – | 0.027 | ΔΨm [1]: −0.614; ROS (reactive oxygen species): 0.383; GE-HTS (OXPHOS gene expression): −0.146; nucOX (nuOXPHOS transcripts): 0.038; mitoOX (mtOXPHOS transcripts): −0.498; Viability (C2C12 myotubes): −0.477; MTT [2]: −0.889
CCn1cc(C(=O)O)c(=O)c2cnc(N3CCNCC3)nc21 [pipemidic acid] | – | – | – | – | – | – | – | – | −0.736 | 0.010 | 0.045 | 0.264 | −0.333 | 0.140 | −0.716 | −0.367 | 0.101 | –
CC[N+]1(C)CCCC(OC(=O)C(O)(c2ccccc2)c2ccccc2)C1 (centres unmarked) [pipenzolate] | – | – | – | – | – | – | – | – | −0.205 | 0.166 | −0.495 | −0.411 | −0.569 | −0.954 | 0.001 | 0.060 | 0.192 | –
CCN1CCN(C(=O)N[C@@H](C(=O)N[C@@H]2C(=O)N3[C@@H]2SC(C)(C)[C@@H]3C(=O)O)c2ccccc2)C(=O)C1=O [piperacillin] | −0.150 | 0.645 | −0.548 | −0.339 | −0.857 | 0.544 | −0.990 | −1.188 | – | – | – | – | – | – | – | – | – | –
O=C(CCBr)N1CCN(C(=O)CCBr)CC1 [pipobroman] | – | – | – | – | – | – | – | – | – | – | – | – | – | – | – | – | 0.441 | ΔΨm [1]: −0.580; ROS (reactive oxygen species): 0.342; GE-HTS (OXPHOS gene expression): −1.074; nucOX (nuOXPHOS transcripts): −0.918; mitoOX (mtOXPHOS transcripts): −1.219; Viability (C2C12 myotubes): −0.792; MTT [2]: −1.907
Nc1ccc(C(=O)[O-])cc1.[K+] [potassium p-aminobenzoate] | – | – | – | – | – | – | – | – | – | – | – | – | – | – | – | – | – | ΔΨm [1, 5]: −0.826; ROS (reactive oxygen species; [5]): 0.818; GE-HTS (OXPHOS gene expression; [5]): −1.001; nucOX (nuOXPHOS transcripts; [5]): −1.085; mitoOX (mtOXPHOS transcripts; [5]): −0.673; cyt c (cytochrome c; [5]): 0.519; Viability (C2C12 myotubes; [5]): −0.277; MTT [2, 5]: −1.445
C[C@]12C=CC(=O)C=C1CC[C@@H]1[C@@H]2C(=O)C[C@@]2(C)[C@H]1CC[C@]2(O)C(=O)CO [prednisone] | – | – | – | – | – | – | – | – | 0.258 | 0.253 | −0.290 | −0.177 | −0.473 | −0.034 | −0.474 | −1.054 | – | ΔΨm [1, 8]: −0.474; ROS (reactive oxygen species; [8]): 0.623; GE-HTS (OXPHOS gene expression; [8]): −0.315; nucOX (nuOXPHOS transcripts; [8]): −0.432; mitoOX (mtOXPHOS transcripts; [8]): −0.048; cyt c (cytochrome c; [8]): −0.428; Viability (C2C12 myotubes; [8]): −1.668; MTT [2, 8]: −1.206
